Assay results: patent US11352350B2, “IRAK degraders and uses thereof” (Kymera Therapeutics, Inc., priority 2018, dated 2022)
Like-named read-outs stand apart in the source and are kept apart here.

Legend:
OCI-LY10 = experiment: CTG Cell Viability Assay - OCI-LY10; assay type: cell-based, human
Method in brief: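 Viability read by CellTiter-Glo luminescence after 4 days at 37° C under 5% CO2 with compound (top 10 μM final, 1:3 steps, 9 doses, DMSO 0.2%). Three-parameter logistic fit gave IC50.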

TMD8 tumor cells = experiment: TMD8 large B lymphoma xenograft model in C.B. 17 SCID mice; assay type: in vivo, mouse; conditions: FIG. 6 A-C
Experimental: Cell Culture: The OCI-LY10 or TMD8 tumor cells were maintained as suspension in RPMI1640 medium supplemented with 10% fetal bovine serum, 100 U/mL penicillin and 100 μg/mL streptomycin at 37° C. in an atmosphere of 5% CO2 in air. The tumor cells were routinely subcultured twice weekly by trypsin-EDTA treatment. The cells growing in an exponential growth phase were harvested and counted for tumor inoculation.
Animals: C.B. 17 SCID, female, 6-8 weeks, weighing approximately 16-18 g were used. Animals were housed and maintained according to IACUC protocols. […]
Assignment to Groups: Before commencement of treatment, all animals were weighed and the tumor volumes were measured. […]
Observation: After tumor inoculation, the animals were checked daily for morbidity and mortality. […] Mortality and observed clinical signs were recorded for individual animals in detail.
Data Collection: Tumor volumes were measured in two dimensions using a caliper, and the volumes were expressed in mm^3 using the formula: “V=(L×W×W)/2, where V is tumor volume, L is tumor length (the longest tumor dimension) and W is tumor width (the longest tumor dimension perpendicular to L).
At termination: At pre-determined time points based on study design, animals were humanely sacrificed by CO2. […] Compound was determined in tumor and plasma using LC/MS with calibrated standards.

Wistar Strain rats = experiment: MSU induced gouty arthritis (knee inflammation) in rats; assay type: in vivo; conditions: prophylactic treatment, MSU-induced knee inflammation rat model
Experimental: The anti-inflammatory efficacy and pain reduction for prophylactic treatment in an MSU-induced knee inflammation rat model of human gout was evaluated. See Kou, Y-Y et al., Evid-Based Compl. Alt. (doi: http://dx.doi.org/10.1155/2015/527019).
Preparation of MSU crystals: 4 g uric acid is dissolved in 800 ml 0.03N NaOH and heated to 60° C. NaOH is added as required to maintain pH 8.9. The solution is stored overnight at 4-8° C. Crystals are filtered, washed and dried. Crystals are suspended in sterile saline just prior to use.
Efficacy Study: Receive and quarantine 70 Wistar Strain rats (male, 250-300 g). Following quarantine, rats are accepted for the Study if no signs of clinical distress are noted during the 3-day quarantine period. […] The rat weights are recorded. […] Baseline readings are taken on DAY −3. Baseline knee diameters are measured by digital caliper. Baseline responses to mechanical allodynia, as measured by von Frey fibers, are recorded. […]
DAY 1: Rats are weighed and dosed as in Table 14. One hour after dosing, mechanical allodynia and knee diameters are measured and recorded.
DAY 2: Rats are weighed and dosed as in Table 14 One hour after dosing, mechanical allodynia and knee diameters are measured and recorded. […]
Results are tabulated, graphed and statistically analyzed for anti-inflammatory efficacy and pain reduction.

OCI-LY19 = OCI-LY19 viability, CTG; assay type: cell-based; conditions: Homo sapiens, OCI-LY19

## CN(CCCOCCCc1cccc2c1n(C)c(=O)n2C1CCC(=O)NC1=O)C[C@H]1CC[C@H](n2cc(NC(=O)c3coc(-c4ccnc(NCC5CC5)c4)n3)c(C(F)F)n2)CC1 (mixture of isomers) [I-30, 2-[2-(Cyclopropylmethylamino)-4-pyridyl]-N-[3-(difluoromethyl)-1-[4-[[3-[3-[1-(2,6-dioxo-3-piperidyl)-3-methyl-2-oxo-benzimidazol-4-yl]propoxy]propyl-methyl-amino]methyl]cyclohexyl]pyrazol-4-yl] oxazole-4-carboxamide]
OCI-LY10; FIG. 5
  cytotoxicity in OCI-LY10 lymphoma line: cytotoxic
OCI-LY10; Homo sapiens, OCI-Ly10, 96 h, OCI-LY10, 4 days, read-out: CTG Cell Viability Assay - OCI-LY10: Average external-IC50
  IC50: 100 to 500 nM
TMD8 tumor cells
  activity in TMD8 xenograft model: active

## CN(C[C@H]1CC[C@H](n2cc(NC(=O)c3coc(-c4ccnc(NCC5CC5)c4)n3)c(C(F)F)n2)CC1)C1CCN(Cc2cccc3c2n(C)c(=O)n3C2CCC(=O)NC2=O)CC1 (stereo partly shown) [I-75, 2-(2-((cyclopropylmethyl)amino)pyridin-4-yl)-N-(3-(difluoromethyl)-1-((1r,4r)-4-(((1-((1-(2,6-dioxopiperidin-3-yl)-3-methyl-2-oxo-2,3-dihydro-1H-benzo[d]imidazol-4-yl)methyl)piperidin-4-yl)(methyl)amino)methyl)cyclohexyl)-1H-pyrazol-4-yl)oxazole-4-carboxamide]
Wistar Strain rats; FIG. 17 A
  knee joint swelling: decreasing knee joint swelling
Wistar Strain rats; FIG. 17 B
  pain sensitivity: analgesic effect
OCI-LY19; MYD88 WT Lines, read-out: OCI-LY19 Viability, CTG IC50
  IC50: 480 nM
OCI-LY19; MYD88 WT, read-out: OCI-LY19 CTG IC50
  IC50: 480 nM
